Experimental data taken from patent publication EP2876156A1 (COMMISSARIAT A L'ENERGIE ATOMIQUE ET AUX ENERGIES …, priority 2013, dated 2015).

Experiments:
Type in all cases: biochemical
ENZ4 SEQ ID NO:4 = biological target: T1, ENZ4 SEQ ID NO:4 (Catenulispora acidiphila, UniProt C7Q942); experiment: Substrate selectivity screening of hydroxylase (conversion by HPLC after Fmoc-Cl derivatization); settings: enzyme 0.08 mg/mL, molar ratio α-ketoglutarate/substrate 15/10, Hepes buffer 50 mM pH 7,5, Mohr's salt 1mM, without sodium ascorbate, room temperature, three hours
T1 construct: His6 (hexahistidine, inserted after the initial methionine) (N); made in house; host or cells: E. coli BL21(DE3) plysE
T1 sequence (C7Q942 1-343): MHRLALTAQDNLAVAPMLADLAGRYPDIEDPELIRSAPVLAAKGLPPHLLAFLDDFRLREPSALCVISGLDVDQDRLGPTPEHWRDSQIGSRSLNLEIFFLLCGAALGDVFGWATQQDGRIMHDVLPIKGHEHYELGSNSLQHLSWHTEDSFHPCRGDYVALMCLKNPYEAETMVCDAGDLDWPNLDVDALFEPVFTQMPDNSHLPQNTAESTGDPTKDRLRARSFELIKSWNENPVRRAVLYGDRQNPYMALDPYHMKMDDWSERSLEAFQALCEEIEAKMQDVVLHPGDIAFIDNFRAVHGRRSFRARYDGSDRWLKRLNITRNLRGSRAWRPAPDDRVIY
Procedure: (§1) Enzymatic reaction medium (0.2 µmole, leq.), borate buffer 0,2M pH 7.7 (80 µL) and Fmoc-Cl solution7.5 mM in acetone (100 µL, 0.75 µmole, 3.75 eq) were hand shaked in a closed 1.50 mL eppendorf for one minute. The aqueous layer was extracted with petroleum ether (3*1 mL) to eliminate excess of Fmoc-Cl. 70 µL of the aqueous phase were withdrawn, diluted with 70 µL of acetonitrile and injected into the HPLC. For substrates with two amine functions, 100 µL of Fmoc-Cl solution 15 mM were used.
(§2) Conditions for HPLC analysis: Atlantis® T3 (3 µm 4.5*150 mm) at 35°C with the gradient 50-86% eluent B (MeCN + 0.1% TFA) and eluent A (H2O + 0.1% TFA) in 20 min at 1 mL/min.
(§3) Enzymes (0.08 mg/mL) were screened against substrates (molar ratio α-ketoglutarate/substrate 15/10) in Hepes buffer 50 mM pH 7,5, with Mohr's salt at 1mM and without sodium ascorbate, at room temperature for three hours. The potential conversions of the substrates were determined by HPLC after Fmoc-Cl derivatization as section III here above.

ENZ5 (SEQ ID NO:9) = biological target: T2, ENZ5 (SEQ ID NO:9) (Niastella koreensis, UniProt G8T8D0); experiment: Hydroxylation capability, HPLC analysis of reaction media after derivatization
T2 construct: His6 (hexahistidine, inserted after the initial methionine) (N); made in house; host or cells: E. coli BL21(DE3) plysE
T2 sequence (G8T8D0 1-371): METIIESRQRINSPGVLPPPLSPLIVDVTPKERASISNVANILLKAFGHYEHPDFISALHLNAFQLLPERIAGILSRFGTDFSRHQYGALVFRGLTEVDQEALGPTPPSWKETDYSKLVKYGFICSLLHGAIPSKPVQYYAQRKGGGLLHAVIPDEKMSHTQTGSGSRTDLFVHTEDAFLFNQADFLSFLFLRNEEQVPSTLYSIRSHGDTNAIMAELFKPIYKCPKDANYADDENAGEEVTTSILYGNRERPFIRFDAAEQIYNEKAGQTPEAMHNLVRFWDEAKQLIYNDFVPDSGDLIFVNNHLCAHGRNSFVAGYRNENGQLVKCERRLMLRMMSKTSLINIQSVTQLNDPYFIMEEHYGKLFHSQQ
Procedure: as §3
(§4) The hydroxylation capability of two other enzymes, namely ENZ6 (SEQ ID NO:10) and ENZ5 (SEQ ID NO:9) were also assessed. The amino sequence of ENZ6 has 79% of amino acid identity with SEQ ID NO:2 of ENZ2 while the amino sequence of ENZ5 has 72% of amino acid identity with SEQ ID NO:3 of ENZ3. […] As shown in part VI, ENZ6 and ENZ5 provide (4R)-hydroxy-L-lysine from L-lysine similarly to ENZ2 and ENZ3. Thus ENZ6 and ENZ5 are likely to have the same substrate selectivity and provide similar products as ENZ2 and ENZ3.

ENZ6 (SEQ ID NO:10) = biological target: T3, ENZ6 (SEQ ID NO:10) (Flavobacterium sp., UniProt J3BZS6); experiment: as above
T3 construct: His6 (hexahistidine, inserted after the initial methionine) (N); made in house; host or cells: E. coli BL21(DE3) plysE
T3 sequence (J3BZS6 whole entry): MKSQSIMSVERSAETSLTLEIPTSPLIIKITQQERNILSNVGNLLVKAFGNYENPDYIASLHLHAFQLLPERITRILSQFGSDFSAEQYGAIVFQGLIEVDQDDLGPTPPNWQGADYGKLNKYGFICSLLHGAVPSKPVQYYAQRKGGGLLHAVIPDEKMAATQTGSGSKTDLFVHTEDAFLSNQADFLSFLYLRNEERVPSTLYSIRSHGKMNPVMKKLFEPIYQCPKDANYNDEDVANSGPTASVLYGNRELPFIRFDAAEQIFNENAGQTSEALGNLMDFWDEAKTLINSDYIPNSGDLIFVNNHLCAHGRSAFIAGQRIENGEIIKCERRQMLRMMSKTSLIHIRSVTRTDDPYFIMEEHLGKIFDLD
Procedure: as §3, §4

ENZ2 (SEQ ID NO:2) = biological target: T4, ENZ2 (SEQ ID NO:2) (Flavobacterium johnsoniae, UniProt A5FF23); experiment: Enzymatic hydroxylation of L-lysine, 10 mL scale, conversion by HPLC (protocol A); settings: with ENZ2 0.086 mg/mL; otherwise as ENZ1 protocol (L-lysine 10 mM, room temperature, 18h)
T4 construct: His6 (hexahistidine, inserted after the initial methionine) (N); made in house; host or cells: E. coli BL21(DE3) plysE
T4 sequence (A5FF23 whole entry): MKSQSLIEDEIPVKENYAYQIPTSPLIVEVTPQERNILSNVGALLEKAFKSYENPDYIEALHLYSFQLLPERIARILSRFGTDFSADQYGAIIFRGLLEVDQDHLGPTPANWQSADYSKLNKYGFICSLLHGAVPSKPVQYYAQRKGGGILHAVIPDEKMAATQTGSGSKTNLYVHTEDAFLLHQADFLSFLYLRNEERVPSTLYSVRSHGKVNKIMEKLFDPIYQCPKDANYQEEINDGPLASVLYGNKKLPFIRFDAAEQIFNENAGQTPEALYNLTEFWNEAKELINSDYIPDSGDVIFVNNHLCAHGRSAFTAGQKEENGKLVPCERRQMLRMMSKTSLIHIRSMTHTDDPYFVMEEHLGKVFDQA
Procedure: as §1, §2
(§5) Enzymatic reaction was carried out in 250 mL glass erlenmeyer flask for a total volume of 4*10 mL. […] The conversion of L-lysine into 3-hydroxy-L-lysine (94%) was determined by HPLC after derivatization with Fmoc-Cl according to protocol A.
(§6) The protocol used was the same as that described above for the hydroxylation by ENZ1 except that the enzyme concentrations used were different (ENZ2: 0.086 mg/mL; ENZ3: 0.031 mg/mL). Conversions were determined by HPLC after derivatization with Fmoc-Cl according to protocol A as described above. […]

ENZ3 SEQ ID NO:3 = biological target: T5, ENZ3 SEQ ID NO:3 (Chitinophaga pinensis, UniProt C7PLM6); experiment: as above; settings: printed 'with ENZ1'; protocol lists ENZ3 0.031 mg/mL; otherwise as ENZ1 protocol (L-lysine 10 mM, room temperature, 18h)
T5 construct: His6 (hexahistidine, inserted after the initial methionine) (N); made in house; host or cells: E. coli BL21(DE3) plysE
T5 sequence (C7PLM6 1-382): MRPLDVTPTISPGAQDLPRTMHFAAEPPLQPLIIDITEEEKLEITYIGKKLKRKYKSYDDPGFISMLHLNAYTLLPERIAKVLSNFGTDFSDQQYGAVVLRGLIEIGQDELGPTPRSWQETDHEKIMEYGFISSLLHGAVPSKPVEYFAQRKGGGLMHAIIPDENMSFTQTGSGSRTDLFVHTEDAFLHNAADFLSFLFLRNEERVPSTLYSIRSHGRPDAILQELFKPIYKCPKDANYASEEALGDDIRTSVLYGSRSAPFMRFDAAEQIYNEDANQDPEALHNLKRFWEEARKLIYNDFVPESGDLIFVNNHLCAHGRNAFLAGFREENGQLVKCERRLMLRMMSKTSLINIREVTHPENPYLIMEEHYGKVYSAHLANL
Procedure: as §1, §2, §5, §6

NCCCC[C@H](N)C(=O)O [L-lysine]
potential conversions of the substrates, ENZ4 SEQ ID NO:4 (ENZ4 SEQ ID NO:4): negative
hydroxylation capability of ENZ5 (ENZ5 (SEQ ID NO:9)): capable of hydroxylating
hydroxylation capability of ENZ6 (ENZ6 (SEQ ID NO:10)): capable of hydroxylating
conversion of L-lysine into (4R)-hydroxy-L-lysine (ENZ2 (SEQ ID NO:2)): 91%
conversion of L-lysine into (4R)-hydroxy-L-lysine (ENZ3 SEQ ID NO:3): 96%
